These results are taken from article PMC12778052 (Science Advances, 2026).

In one assay the test system is HT1376 tumor xenograft. Kind of assay: TE and EV therapy response study, HT1376 xenograft. It is filed as in vivo, NSG mice. The following applies: for mice showing a drop in [^68Ga]AJ647 uptake: day 6. The procedure: (§1) Mice with tumor volumes of ~100 to 150 mm^3 were injected with ~200 μCi [7.4 megabecquerels (MBq)] of [^68Ga]AJ647 in […] of 5% ethanol in saline intravenously and anesthetized under 2.5% isoflurane. PET-computed tomography (CT) images were acquired at 60 min after radiotracer injection at 5 min per bed in an ARGUS small-animal PET/CT scanner (Sedecal, Madrid, Spain) as described previously (n = 3, unless otherwise noted). PET-MR images were acquired on a simultaneous 7T Bruker PET-MR scanner. Dynamic imaging was conducted to evaluate the PK of [^68Ga]AJ647. [^68Ga]AJ647 was injected (with the help of a catheter) after mice were anesthetized under 2.5% isoflurane on the equipment bed. All PET data were reconstructed using the two-dimensional (2D) ordered subset expectation maximization algorithm and corrected for radioactive decay and dead times. The SUV values were calculated by finding %IA on the basis of a calibration factor obtained from a known radioactive quantity and then normalizing by mice weight. Amide software was used to derive SUV values by drawing the region of interest to closely fit tumors. In particular, MR images were used to identify tumor boundaries manually; these boundaries were transferred to co-registered PET images to derive SUVs. This process was repeated for each mouse individually in a blinded fashion. For the change in accessible Nectin-4 following EV treatment, ΔSUV was calculated by subtracting baseline (pre-treatment) uptake from posttherapy uptake of [^68Ga]AJ647. TE was quantified by normalizing this change by initial SUV in the same subject controls. Image fusion, visualization, and 3D rendering were accomplished using Amira 2020.3.1 (FEI, Hillsboro, OR).
Male NSG (n = 35) mice were inoculated with 4 million HT1376 cells at day 0. On day 23 (average tumor volume, 170 ± 22 mm^3), mice were randomized to receive either saline or a single dose of EV (6 or 15 mg/kg) intravenously (n = 10 for each group). Mice (n = 10) from each dose group were imaged on days 22 (pre-EV) and 29 (6 days post-EV). Saline mice (n = 5) were imaged on day 25 to serve as temporal and treatment control. Mouse body weight and tumor measurements were recorded until saline group tumors reached 1500 mm^3 in average size. Responders and nonresponders were identified using mRECIST for mice published elsewhere ([34]). Briefly, the percentage change in volume relative to the baseline: % tumor volume change (ΔVolt) = 100% × [(Vt − Vinitial)/Vinitial]. BestResponse was the lowest ΔVolt for t ≥ 10 days. For each time t, the average ΔVolt from t = 0 to t was calculated, with the BestAvgResponse defined as the lowest average ΔVolt for t ≥ 10 days. mRECIST, adapted from RECIST21, assigned response labels when both the BestResponse and BestAvgResponse conditions are met at the same time. A modified complete response is defined when BestResponse is less than −95% and BestAvgResponse is less than −40%. A modified partial response is assigned when BestResponse is less than −50% and BestAvgResponse is less than −20%. Modified stable disease is defined when BestResponse is less than 35% and BestAvgResponse is less than 30%. Modified progressive disease is assigned when none of these criteria are satisfied.
We defined modified progressive disease as nonresponders (0 response) and stable disease or better as responders (1 response). […]

The test system of a further assay is HT1376 tumors. Kind of assay: EV effect on Nectin-4 temporal PD, [^68Ga]AJ647 PET. The class given is in vivo, NSG mice. The procedure:
as §1, with “OR). The dose-time PD of Nectin-4 following EV treatment was studied at doses of 6, 9, and 15 mg/kg. Experiments involving PET imaging were performed first. Male NSG mice were inoculated with 4 million HT1376 cells at day 0. On day 23 (average tumor volume, 150 ± 30 mm^3), mice were randomized to receive either saline or a single dose of EV (6, 9, or 15 mg/kg) intravenously (n = 3 for each dose and n = 2 for saline). Mice (n = 2) from each dose group and saline group were imaged on days 1, 3, and 6 following EV treatment. Once PET imaging results were analyzed, ex vivo distribution experiment was performed with n = 16 to 18 for each dose and n = 10 for saline. Treated mice (n = 8 or 9 per dose per time point) along with saline controls (n = 5 per time point) were euthanized on days 1 and 6. Biodistribution studies were performed at 60 min after [^68Ga]AJ647 injection, as described above. PD metrics were defined as follows Accessible Nectin−4=SUVpost/SUVpre∗100 Nectin−4 TE=(SUVpre−SUVpost)/SUVpre∗100” for “OR).”

Take enfortumab vedotin [EV]: the “mice showing a drop in [^68Ga]AJ647 uptake” value is given as 5 of 10 in the assay with HT1376 tumor xenograft (EV 6 mg/kg) and 9 of 10 in the assay with HT1376 tumor xenograft (EV 15 mg/kg). Besides, the final tumor volume with HT1376 tumor xenograft (EV-treated mice with higher TE, in mm³ (unit assumed)) turned out to be 324.9 ± 194.6; in the assay on HT1376 tumor xenograft (EV-treated mice with less than 30% TE), 759.4 ± 455. The tumor growth entry with HT1376 tumor xenograft (single dose EV 6 or 15 mg/kg, n = 10 per group, more pronounced at 15 mg/kg) was “Tumor growth inhibition was observed in both groups”. In addition, the “Nectin-4 engagement by PET” value in the assay with HT1376 tumors (day 1, EV 6, 9 or 15 mg/kg single dose) was “full occupancy of Nectin-4”; with HT1376 tumors (day 3, EV 6 mg/kg), “increase in [^68Ga]AJ647 uptake”; in the assay on HT1376 tumors (day 3, EV 9 and 15 mg/kg), “low tracer uptake”; in the assay on HT1376 tumors (day 6, EV 6 mg/kg) it was “significant increase in [^68Ga]AJ647 uptake”; in the assay with HT1376 tumors (day 6, EV 9 mg/kg), “moderate increase in uptake”; with HT1376 tumors (day 6, EV 15 mg/kg) it was “minimal tracer uptake”.
